From patent US12077503B2, “Substituted cyclic amides and their use as herbicides” (FMC CORPORATION, priority 2015, dated 2024)

How the values were obtained:
rice (Oryza sativa) = assay: Test C flooded paddy test; assay type: in vivo; conditions: Flood; for Plant response rating (scale of 0 to 100), Rice: 0 is no effect, 100 is complete control
Outline: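 Compound was added directly to paddy water held 3 cm above the soil, with plants at the 2-leaf stage. Injury was scored visually versus untreated controls after 13–15 d greenhouse growth, using a 0–100 scale where 100 means complete control.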

[1] = system: pigweed (Amaranthus retroflexus); assay: Test C preemergence; assay type: in vivo; conditions: for Plant response rating, Pigweed: scale 0 to 100, 0 no effect, 100 complete control
Outline: (§1)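 Assessment: visual, 13–15 d after treatment, 0 (no effect) to 100 (complete control) relative to controls. Treatment: preemergence to seeds in loam-sand soil, or postemergence to 1- to 4-leaf plants in peat-based medium. Formulation: non-phytotoxic solvent mixture with surfactant.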

[2] = system: Galium (catchweed bedstraw, Galium aparine); assay: Test C preemergence; assay type: in vivo; conditions: for Plant response rating, Galium: scale 0 to 100, 0 no effect, 100 complete control
Outline: as §1

[3] = system: lambsquarters (Chenopodium album); assay: Test C preemergence; assay type: in vivo; conditions: for Plant response rating, Lambsquarters: scale 0 to 100, 0 no effect, 100 complete control
Outline: as §1

[4] = system: waterhemp (common waterhemp, Amaranthus rudis); assay: Test C preemergence; assay type: in vivo; conditions: for Plant response rating, Waterhemp: scale 0 to 100, 0 no effect, 100 complete control
Outline: as §1

[5] = system: ryegrass, Italian (Italian ryegrass, Lolium multiflorum); assay: Test C preemergence; assay type: in vivo; conditions: for Plant response rating, Ryegrass, Italian: scale 0 to 100, 0 no effect, 100 complete control
Outline: as §1

[6] = system: oilseed rape (Brassica napus); assay: Test C preemergence; assay type: in vivo; conditions: for Plant response rating, Oilseed Rape: scale 0 to 100, 0 no effect, 100 complete control
Outline: as §1

[7] = system: velvetleaf (Abutilon theophrasti); assay: Test C preemergence; assay type: in vivo; conditions: for Plant response rating, Velvetleaf: scale 0 to 100, 0 no effect, 100 complete control
Outline: as §1

[8] = system: blackgrass (Alopecurus myosuroides); assay: Test C preemergence; assay type: in vivo; conditions: for Plant response rating, Blackgrass: scale 0 to 100, 0 no effect, 100 complete control
Outline: as §1

[9] = system: johnsongrass (Sorghum halepense); assay: Test C preemergence; assay type: in vivo; conditions: for Plant response rating, Johnsongrass: scale 0 to 100, 0 no effect, 100 complete control
Outline: as §1

corn (Zea mays) = assay: Test C preemergence; assay type: in vivo; conditions: for Plant response rating, Corn: scale 0 to 100, 0 no effect, 100 complete control
Outline: as §1

soybean (Glycine max) = assay: Test C preemergence; assay type: in vivo; conditions: for Plant response rating, Soybean: scale 0 to 100, 0 no effect, 100 complete control
Outline: as §1

[10] = system: crabgrass, large (large crabgrass, Digitaria sanguinalis); assay: Test C preemergence; assay type: in vivo; conditions: for Plant response rating, Crabgrass, Large: scale 0 to 100, 0 no effect, 100 complete control
Outline: as §1

[11] = system: morningglory (Ipomoea coccinea); assay: Test C preemergence; assay type: in vivo; conditions: for Plant response rating, Morningglory: scale 0 to 100, 0 no effect, 100 complete control
Outline: as §1

[12] = system: ragweed (common ragweed, Ambrosia elatior); assay: Test C preemergence; assay type: in vivo; conditions: for Plant response rating, Ragweed: scale 0 to 100, 0 no effect, 100 complete control
Outline: as §1

[13] = system: nutsedge, yellow (yellow nutsedge, Cyperus esculentus); assay: Test C preemergence; assay type: in vivo; conditions: for Plant response rating, Nutsedge, Yellow: scale 0 to 100, 0 no effect, 100 complete control
Outline: as §1

[14] = system: foxtail, giant (giant foxtail, Setaria faberii); assay: Test C preemergence; assay type: in vivo; conditions: for Plant response rating, Foxtail, Giant: scale 0 to 100, 0 no effect, 100 complete control
Outline: as §1

[15] = system: barnyardgrass (Echinochloa crus-galli); assay: Test C preemergence; assay type: in vivo; conditions: for Plant response rating, Barnyardgrass: scale 0 to 100, 0 no effect, 100 complete control
Outline: as §1

[16] = system: wheat (winter wheat, Triticum aestivum); assay: Test C preemergence; assay type: in vivo; conditions: for Plant response rating, Wheat: scale 0 to 100, 0 no effect, 100 complete control
Outline: as §1

[17] = 31 g ai/ha, 0 is no effect, 100 is complete control

CN1CC(c2cc(F)cc(F)c2)C(C(=O)Nc2cccc(F)c2F)C1=O (stereo not shown) [Compound 644]
Plant response rating, Rice (rice (Oryza sativa); 31 g ai/ha, scale 0 to 100 (0 no effect, 100 complete control), 13 to 15 d): 0
Plant response rating (scale of 0 to 100), Rice (rice (Oryza sativa); 62 g ai/ha): 0
Plant response rating (scale of 0 to 100), Rice (rice (Oryza sativa); 125 g ai/ha): 0
Plant response rating (scale of 0 to 100), Rice (rice (Oryza sativa); 250 g ai/ha): 0
Plant response rating (scale of 0 to 100), Pigweed [1, 17]: 0
Plant response rating, Pigweed ([1]; 62 g ai/ha): 55
Plant response rating, Pigweed ([1]; 125 g ai/ha): 55
Plant response rating, Pigweed ([1]; 250 g ai/ha): 70
Plant response rating (scale of 0 to 100), Galium [2, 17]: 10
Plant response rating, Galium ([2]; 62 g ai/ha): 85
Plant response rating, Galium ([2]; 125 g ai/ha): 90
Plant response rating, Galium ([2]; 250 g ai/ha): 98
Plant response rating (scale of 0 to 100), Lambsquarters [3, 17]: 50
Plant response rating, Lambsquarters ([3]; 62 g ai/ha): 75
Plant response rating, Lambsquarters ([3]; 125 g ai/ha): 85
Plant response rating, Lambsquarters ([3]; 250 g ai/ha): 85
Plant response rating (scale of 0 to 100), Waterhemp [4, 17]: 10
Plant response rating, Waterhemp ([4]; 62 g ai/ha): 65
Plant response rating, Waterhemp ([4]; 125 g ai/ha): 65
Plant response rating, Waterhemp ([4]; 250 g ai/ha): 80
Plant response rating (scale of 0 to 100), Ryegrass, Italian [5, 17]: 50
Plant response rating, Ryegrass, Italian ([5]; 62 g ai/ha): 55
Plant response rating, Ryegrass, Italian ([5]; 125 g ai/ha): 65
Plant response rating, Ryegrass, Italian ([5]; 250 g ai/ha): 98
Plant response rating (scale of 0 to 100), Oilseed Rape [6, 17]: 0
Plant response rating, Oilseed Rape ([6]; 62 g ai/ha): 50
Plant response rating, Oilseed Rape ([6]; 125 g ai/ha): 85
Plant response rating, Oilseed Rape ([6]; 250 g ai/ha): 90
Plant response rating (scale of 0 to 100), Velvetleaf [7, 17]: 5
Plant response rating, Velvetleaf ([7]; 62 g ai/ha): 15
Plant response rating, Velvetleaf ([7]; 125 g ai/ha): 40
Plant response rating, Velvetleaf ([7]; 250 g ai/ha): 60
Plant response rating (scale of 0 to 100), Blackgrass [8, 17]: 70
Plant response rating, Blackgrass ([8]; 62 g ai/ha): 70
Plant response rating, Blackgrass ([8]; 125 g ai/ha): 90
Plant response rating, Blackgrass ([8]; 250 g ai/ha): 95
Plant response rating (scale of 0 to 100), Johnsongrass [9, 17]: 35
Plant response rating, Johnsongrass ([9]; 62 g ai/ha): 70
Plant response rating, Johnsongrass ([9]; 125 g ai/ha): 85
Plant response rating, Johnsongrass ([9]; 250 g ai/ha): 85
Plant response rating (scale of 0 to 100), Corn (corn (Zea mays); [17]): 30
Plant response rating, Corn (corn (Zea mays); 62 g ai/ha): 50
Plant response rating, Corn (corn (Zea mays); 125 g ai/ha): 65
Plant response rating, Corn (corn (Zea mays); 250 g ai/ha): 85
Plant response rating (scale of 0 to 100), Soybean (soybean (Glycine max); [17]): 10
Plant response rating, Soybean (soybean (Glycine max); 62 g ai/ha): 10
Plant response rating, Soybean (soybean (Glycine max); 125 g ai/ha): 0
Plant response rating (scale of 0 to 100), Crabgrass, Large [10, 17]: 95
Plant response rating, Crabgrass, Large ([10]; 62 g ai/ha): 95
Plant response rating, Crabgrass, Large ([10]; 125 g ai/ha): 98
Plant response rating, Crabgrass, Large ([10]; 250 g ai/ha): 100
Plant response rating (scale of 0 to 100), Morningglory [11, 17]: 0
Plant response rating, Morningglory ([11]; 62 g ai/ha): 0
Plant response rating, Morningglory ([11]; 125 g ai/ha): 0
Plant response rating, Morningglory ([11]; 250 g ai/ha): 0
Plant response rating (scale of 0 to 100), Ragweed [12, 17]: 25
Plant response rating, Ragweed ([12]; 62 g ai/ha): 35
Plant response rating, Ragweed ([12]; 125 g ai/ha): 70
Plant response rating, Ragweed ([12]; 250 g ai/ha): 85
Plant response rating (scale of 0 to 100), Nutsedge, Yellow [13, 17]: 0
Plant response rating, Nutsedge, Yellow ([13]; 62 g ai/ha): 0
Plant response rating, Nutsedge, Yellow ([13]; 125 g ai/ha): 0
Plant response rating, Nutsedge, Yellow ([13]; 250 g ai/ha): 15
Plant response rating (scale of 0 to 100), Foxtail, Giant [14, 17]: 95
Plant response rating, Foxtail, Giant ([14]; 62 g ai/ha): 95
Plant response rating, Foxtail, Giant ([14]; 125 g ai/ha): 98
Plant response rating, Foxtail, Giant ([14]; 250 g ai/ha): 98
Plant response rating (scale of 0 to 100), Barnyardgrass [15, 17]: 90
Plant response rating, Barnyardgrass ([15]; 62 g ai/ha): 95
Plant response rating, Barnyardgrass ([15]; 125 g ai/ha): 98
Plant response rating, Barnyardgrass ([15]; 250 g ai/ha): 98
Plant response rating (scale of 0 to 100), Wheat [16, 17]: 30
Plant response rating, Wheat ([16]; 62 g ai/ha): 80
Plant response rating, Wheat ([16]; 125 g ai/ha): 85
Plant response rating, Wheat ([16]; 250 g ai/ha): 90

CC(C)=CC1CNC(=O)C1C(=O)Nc1cccc(F)c1F (stereo not shown) [Compound 1012]
melting point: 162 to 166 °C

COc1cccc([C@H]2CN(C)C(=O)[C@@H]2C(=O)Nc2cccc(F)c2F)c1F [Compound 1072]
melting point: 163 to 167 °C

C=C(C)c1cccc([C@H]2CN(C)C(=O)[C@@H]2C(=O)Nc2cccc(F)c2F)c1 [Compound 1085]
melting point: 113 to 117 °C

C=C(C)c1cccc([C@H]2CN(C)C(=O)[C@@H]2C(=O)Nc2cccc(F)c2C)c1 [Compound 1086]
melting point: 89 to 93 °C

CN1C[C@H](c2ccc(F)c(Oc3ccccc3)c2)[C@@H](C(=O)Nc2ccccc2S(C)(=O)=O)C1=O [Compound 1143]
melting point: 141 to 145 °C

C=C(C)c1ccc([C@H]2CN(C)C(=O)[C@@H]2C(=O)Nc2cccc(F)c2F)cc1 [Compound 1149]
melting point: 126 to 130 °C

O=C1NC[C@H](c2ccc(F)c(Oc3ccccc3)c2)[C@H]1C(=O)Nc1cccc(F)c1F [Compound 1258]
melting point: 123 to 127 °C

COc1ccc([C@H]2CNC(=O)[C@@H]2C(=O)Nc2cccc(F)c2F)cc1 [Compound 1341]
melting point: 187 to 191 °C

COc1ccc([C@H]2CN(C)C(=O)[C@@H]2C(=O)Nc2cccc(F)c2F)cc1 [Compound 1343]
melting point: 130 to 134 °C

O=C1NC[C@H](c2cc(Br)cc(Br)c2)[C@H]1C(=O)Nc1cccc(F)c1F [Compound 1366]
melting point: 81 to 85 °C
